Source: PubChem BioAssay AID200 (DTP/NCI, 2004)
Where “and” joins values, the source holds several entries; their conditions need not be identical. Identical values can stand only once. Inconclusive results and toxic doses are left out.

System: B6C3F1 mice, B16 melanoma ip, median survival T/C
Experiment: NCI In Vivo Anticancer Drug Screen. Data for tumor model B16 Melanoma (intraperitoneal) in B6C3F1 mice
Conditions: endpoint: median survival time, higher = longer survival
In short: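 Transplantable tumor in mice; treated vs vehicle control groups; survival or tumor size measured; value = T/C ratio.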

[1] = dose: 6.25 mg/kg/injection, schedule: Q01DX009 (ip), vehicle: saline with Tween-80
[2] = dose: 12.5 mg/kg/injection, schedule: Q01DX009 (ip), vehicle: saline with Tween-80
[3] = dose: 25.0 mg/kg/injection, schedule: Q01DX009 (ip), vehicle: saline with Tween-80
[4] = dose: 25.0 mg/kg/injection, schedule: Q01DX009 (ip), vehicle: Klucel (hydroxypropylcellulose) (HPC)
[5] = dose: 100.0 mg/kg/injection, schedule: Q01DX009 (ip), vehicle: Klucel (hydroxypropylcellulose) (HPC)
[6] = dose: 200.0 mg/kg/injection, schedule: Q01DX009 (ip), vehicle: Klucel (hydroxypropylcellulose) (HPC)
[7] = dose: 400.0 mg/kg/injection, schedule: Q01DX009 (ip), vehicle: Klucel (hydroxypropylcellulose) (HPC)
[8] = dose: 6.25 mg/kg/injection, schedule: Q01DX009 (ip), vehicle: Klucel (hydroxypropylcellulose) (HPC)
[9] = dose: 12.5 mg/kg/injection, schedule: Q01DX009 (ip), vehicle: Klucel (hydroxypropylcellulose) (HPC)
[10] = dose: 50.0 mg/kg/injection, schedule: Q01DX009 (ip), vehicle: Klucel (hydroxypropylcellulose) (HPC)
[11] = dose: 25.0 mg/kg/injection, schedule: Q01DX009 (ip), vehicle: saline
[12] = dose: 50.0 mg/kg/injection, schedule: Q01DX009 (ip), vehicle: saline
[13] = dose: 100.0 mg/kg/injection, schedule: Q01DX009 (ip), vehicle: saline
[14] = dose: 1.56 mg/kg/injection, schedule: Q01DX009 (ip), vehicle: Klucel (hydroxypropylcellulose) (HPC)
[15] = dose: 3.12 mg/kg/injection, schedule: Q01DX009 (ip), vehicle: Klucel (hydroxypropylcellulose) (HPC)
[16] = dose: 1.56 mg/kg/injection, schedule: Q01DX009 (ip), vehicle: saline
[17] = dose: 6.25 mg/kg/injection, schedule: Q01DX009 (ip), vehicle: saline

[NH-]C(CCC(N)=O)C(=O)O.[NH-]C(CCC(N)=O)C(=O)O.[Zn+2] (stereo not given)
T/C [1]: 95 % of control
T/C [2]: 93 % of control
T/C [3]: 98 % of control
T/C (dose: 50.0 mg/kg/injection, schedule: Q01DX009 (ip), vehicle: saline with Tween-80): 90 % of control

COc1cccc2c1C(=O)c1c(O)c3c(c(O)c1C2=O)C[C@@](O)(C(C)=O)C[C@@H]3OC1CC(N(C)Cc2ccccc2)C(O)C(C)O1 (stereo not given in full)
T/C (dose: 3.13 mg/kg/injection, schedule: Q01DX001 (ip), vehicle: distilled water + Tween-80): 114 % of control
T/C (dose: 12.5 mg/kg/injection, schedule: Q01DX001 (ip), vehicle: distilled water + Tween-80): 122 % of control

Cc1c(-c2ccc(C3CCCCC3)cc2)nc2ccc(F)cc2c1C(=O)O
T/C [4]: 121 % of control
T/C [5]: 155 % of control
T/C [6]: 150 % of control
T/C [7]: 160 % of control and 179 % of control

O=C(NC(Cc1cn(Cc2ccccc2)cn1)C(=O)O)OCC1c2ccccc2-c2ccccc21 (stereo not given)
T/C [5]: 111 % of control
T/C [6]: 103 % of control
T/C [7]: 115 % of control

O=C1CCCCCC2=NC12 (stereo not given)
T/C [8]: 95 % of control
T/C [9]: 91 % of control
T/C [4]: 87 % of control
T/C [10]: 98 % of control

Clc1ccc(C2SC=Cc3ccccc32)cc1 (stereo not given)
T/C [4]: 114 % of control
T/C [10]: 114 % of control
T/C [5]: 118 % of control
T/C [6]: 112 % of control
T/C [7]: 103 % of control

CN1[C@@H](CC(=O)c2ccccc2)CCC[C@H]1CC(=O)c1ccccc1
T/C [11]: 104 % of control
T/C [12]: 112 % of control
T/C [13]: 98 % of control

NC(=O)CCC(NC(=O)OCC1c2ccccc2-c2ccccc21)C(=O)O (stereo not given)
T/C [5]: 98 % of control
T/C [6]: 93 % of control
T/C [7]: 94 % of control

[F][Sn]([F])([c]1ccccc1)[c]1ccccc1
T/C [14]: 98 % of control
T/C [15]: 87 % of control
T/C [8]: 104 % of control
T/C [9]: 103 % of control

Clc1cc(Cl)nc(N2CC2)n1
T/C (dose: 2.5 mg/kg/injection, schedule: Q01DX009 (ip), vehicle: saline with Tween-80): 108 % of control
T/C (dose: 5.0 mg/kg/injection, schedule: Q01DX009 (ip), vehicle: saline with Tween-80): 102 % of control
T/C (dose: 10.0 mg/kg/injection, schedule: Q01DX009 (ip), vehicle: saline with Tween-80): 106 % of control

ClC1=C(Cl)C(Cl)=C(Cl)C1=Cc1ccccc1
T/C (dose: 3.12 mg/kg/injection, schedule: Q01DX009 (ip), vehicle: saline with Tween-80): 112 % of control
T/C [1]: 98 % of control
T/C [2]: 106 % of control
T/C [3]: 101 % of control

COc1ccc(C(=O)C(=O)c2ccc(OC)c(OC)c2)cc1OC
T/C [16]: 101 % of control
T/C (dose: 3.13 mg/kg/injection, schedule: Q01DX009 (ip), vehicle: saline): 99 % of control
T/C [17]: 97 % of control

C=Cc1cnc([N+](=O)[O-])n1C
T/C [9]: 99 % of control and 106 % of control
T/C [4]: 103 % of control and 107 % of control
T/C [10]: 100 % of control and 105 % of control
T/C [5]: 109 % of control and 106 % of control
T/C [6]: 110 % of control and 100 % of control

O=C(O)C1CSCN1 (stereo not given)
T/C (dose: 0.39 mg/kg/injection, schedule: Q01DX009 (ip), vehicle: Klucel (hydroxypropylcellulose) (HPC)): 95 % of control
T/C (dose: 0.78 mg/kg/injection, schedule: Q01DX009 (ip), vehicle: Klucel (hydroxypropylcellulose) (HPC)): 99 % of control
T/C [14]: 97 % of control
T/C [16]: 96 % of control
T/C [15]: 86 % of control
T/C (dose: 3.12 mg/kg/injection, schedule: Q01DX009 (ip), vehicle: saline): 86 % of control
T/C [8]: 93 % of control
T/C [17]: 90 % of control and 107 % of control
T/C [9]: 87 % of control
T/C (dose: 12.5 mg/kg/injection, schedule: Q01DX009 (ip), vehicle: saline): 116 % of control and 98 % of control and 102 % of control
T/C [11]: 117 % of control and 104 % of control
T/C [12]: 110 % of control and 121 % of control
T/C [13]: 112 % of control and 101 % of control
